Reference: patent US20210198284A1, “GOLD COMPOSITIONS AND METHODS OF USE THEREOF” (THE UNIVERSITY OF MASSACHUSETTS, priority 2018, published 2021)
Where two headings read alike, the source gives them in different places.

How the values were obtained:
[1] = system: A549 cells; test: Cytotoxicity assay (resazurin); assay type: cell-based; conditions: 20 h, mean±S.E.M. from two independent experiments
Procedure: Sample preparation. The compounds were dissolved in DMSO at 12.8 mg/mL as the stock solutions, except for compounds 9-17, which were directly dissolved in the culture medium at 12.8 mg/mL. The stock solutions were diluted by the culture medium to the testing concentration at 128 μg/mL (compound 9-17 were diluted to 1,280 μg/mL). The solutions were then serially diluted two fold in a 96-well plate and were used in the cytotoxicity assay immediately.
Cell culture and cytotoxicity assay. A549 cells (ATCC CCL-185) were cultured in high glucose DMEM (Sigma-Aldrich, D6429) supplemented with 10% FBS, 1% penicillin-streptomycin solution (Sigma-Aldrich, P4333), 1% gentamicin solution (Sigma-Aldrich, G1272) and 1% amphotericin B solution (Sigma-Aldrich, A2942) at 37° C. in a humidified atmosphere containing 5% CO2. After cells reached 80%˜90% confluency, they were detached and counted using an Invitrogen Countess automated cell counter. Cells with viability over 90% were seeded at a density of 5×10^3 cells per well in 96-well cell culture plates. After overnight culture, the culture medium in each well removed with a pipet. 80 μL of the compound solutions from each well of the 96-well plate prepared above were transferred to this 96-well plate containing the cells, and the plates were incubated for 20 h. After addition of 8 μL of 110 μg/mL resazurin, the plates were incubated for further 3 h at 37° C. in 5% CO2. The fluorescence intensity was measured using a Tecan M200 Infinite Pro microplate reader at excitation 560 nm, emission 590 nm. IC50 were calculated by curve fitting the inhibition values vs. log(concentration) using GraphPad's Prism. The cytotoxicity assays (in triplicate) were repeated twice using freshly prepared cells and compound solutions.

[2] = system: E. cloacae NCTC 13405; test: Antibacterial assay, MIC/MBC by broth microdilution (CLSI); assay type: cell-based; conditions: E. cloacae NCTC 13405; for MIC: repeated twice, a/b = both values
Procedure: (§1) Antibacterial assay. The minimum inhibitory concentrations (MICs) and the minimum bactericidal concentrations (MBCs) were determined by the broth microdilution method as described in the CLSI (The Clinical & Laboratory Standards Institute) guidelines (Performance standards for antimicrobial susceptibility testing: Clinical and Laboratory Standards Institute (CLSI), Twenty-Fifth informational supplement. Document M100-S25: […]; Vol. 35). All bacterial strains were cultured in cation-adjusted Muller Hinton broth (CAMHB) up to log-phase and then diluted to give a concentration of 7.5×10^5 CFU/mL. The gold complexes were dissolved in DMSO or water as stock solutions, which were then serially diluted two-fold in a 96-well plate. Aliquots (100 μL) of the dilutions were mixed with equal volumes of the bacterium suspension in a 96 well plate (in triplicates). The plates were incubated at 37° C. for 18 h without shaking. Negative and positive controls were included in the same well plate with wells having the culture medium only and bacteria solution only, respectively. The sample concentration that gave inhibition values above 90% were determined as MICs as calculated from absorbance values at 600 nm (OD600) obtained using a Tecan SPARK IOM plate reader. To determine minimum bactericidal concentrations (MBCs), agar plates were treated with 5 μL sample solutions from each well, and then incubated at 37° C. for 18 h without shaking. The sample concentration that gave no colony formed on agar plates were determined as MBCs.
(§2) Selection of bacteria. The ESKAPE pathogens were chosen as they are responsible for the majority of nosocomial infections and also as they provide a good scope of strains including both Gram-negative and Gram-positive species. A. baumannii NCTC 13420 was originally identified in 24 hospitals in the UK during 2000-2003, which produced OXA-51-like β-lactamases, and was highly resistant to ampicillin, piperacillin, piperacillin/tazobactam, ceftazidime, cefotaxime, gentamicin and ciprofloxacin. P. aeruginosa NCTC13437 produces VIM-10 metallo-carbapenemase and VEB-1 (Vietnamese extended-spectrum beta-lactamase). Wild-type strain E. cloacae NCTC 13405 (originally named E. cloacae 684) was isolated from patients at the London Hospital during 1982-1983. This strain has inducible AmpC β-lactamase and is resistant to ampicillin/amoxicillin and cefoxitin. K. pneumoniae ATCC 700603 was isolated from the urine of a hospitalized patient in Richmond, Va. in 1994, and it produces SHV-18 extended spectrum beta-lactamase (ESBL). JE2 (USA300) is a methicillin-resistant S. aureus (MRSA) strain, also resistant to beta-lactams, ciprofloxacin, tetracycline, macrolides (erythromycin), lincosamides (clindamycin), streptogramin B, and mupirocin. E. faecium ATCC 700221, a positive fecal VRE (vancomycin-resistant enterococcus) isolate, is resistant to several antibiotics including vancomycin and teicoplanin. The quality control strain, Gram-negative E. coli ATCC 25922, was included in all assays and validated with ciprofloxacin and […].

[3] = system: K. pneumoniae ATCC 700603; test: as above; assay type: cell-based; conditions: K. pneumoniae ATCC 700603; for MIC: repeated twice, a/b = both values
Procedure: as §1, §2

[4] = system: A. baumannii NCTC 13420; test: as above; assay type: cell-based; conditions: A. baumannii NCTC 13420; for MIC: repeated twice, a/b = both values
Procedure: as §1, §2

[5] = system: E. faecalis ATCC 700221; test: as above; assay type: cell-based; conditions: for MIC: repeated twice, a/b = both values
Procedure: as §1, §2

[6] = system: E. coli ATCC 25922; test: as above; assay type: cell-based; conditions: for MIC: repeated twice, a/b = both values
Procedure: as §1, §2

[7] = system: P. aeruginosa NCTC 13437; test: as above; assay type: cell-based; conditions: P. aeruginosa NCTC 13437; for MIC: repeated twice, a/b = both values
Procedure: as §1, §2

[8] = system: S. aureus JE2 (USA300); test: as above; assay type: cell-based; conditions: S. aureus JE2 (USA300); for MIC: repeated twice, a/b = both values
Procedure: as §1, §2

[9] = Log P determination (n-octanol/water, FAAS); conditions: for logP: Log P
Procedure: Log P Determination: Calibration curves. Milli-Q Water (150 mL) was added to n-octanol (150 mL), and the mixture was stirred for 3 days to allow both phases to reach saturation. The gold standard solution (1000 ppm Au in hydrochloric acid, Fisher Scientific) was diluted to 1, 2, 3, 4 and 5 ppm with n-octanol-saturated water, and the absorbance of the resulting solutions was measured by flame atomic absorption spectroscopy (FAAS, Agilent Technology 200 Series AA, equipped with a gold HC Lamp-Au coded). The absorbance data were plotted against Au concentration, and the resulting calibration curve was used for determining the concentration of the analogs in the aqueous phase.
To construct the standard calibration curve of the Au concentration in the n-octanol phase, compound 27 was used. The Au concentration in compound 27 was first calibrated against the aqueous gold standard. For this, 0.440 mg of compound 27 was weighed on a Sartorius MC5 microbalance, and then added to 22 mL of n-octanol-saturated water. […] For this, solutions of varying concentrations (0.99, 2.47, 4.94, 5.93, 9.88 ppm) of compound 27 in water-saturated n-octanol were prepared. The absorbance was measured by FAAS, and the data were plotted against the Au concentration to provide a second calibration curve, which was used for determining the Au concentration of the analogs in the n-octanol phase.
Determination of Au concentrations: Method 1. 0.5 to 1 mg of compound was weighed into a 2-mL Eppendorf tube containing 2 mL of n-octanol-saturated water. After shaking for about 4 h, the solution was centrifuged at 6000 rpm for 3 min. 1 mL of the supernatant was transferred to a new tube containing 1 mL of water-saturated n-octanol, and the mixture was shaken for 1 h. After centrifugation at 6000 rpm for 5 min, the two layers were collected and the gold concentration in each layer was determined by FAAS by comparing the absorbance to the first and second calibration curves.
Determination of Au concentrations: Method 2. […] For Method 2, 0.6 to 1 mg of compound was weighed into a 2-mL Eppendorf tube containing 1 mL of n-octanol-saturated water and 1 mL of water-saturated n-octanol. After shaking for 3-4 h, the mixture was centrifuged, and all liquid was transferred to a 15-mL tube. The liquid was then diluted with 2 mL of n-octanol-saturated saturated water and 2 mL of water-saturated n-octanol, and the mixture was shaken for another hour. After centrifugation at 6000 rpm for 5 min, the two layers were collected and the gold concentration in each layer was determined by FAAS by comparing the absorbance to the first and second calibration curves.
Log P was calculated as follows: log P=log[compound]oct/[compound]water

Molecule | IC50 against A549 cells [1] | MBC (in brackets) [2] | MIC [2] | MIC [3] | MBC (in brackets) [4] | MIC [4] | MBC (in brackets) [5] | MIC [5] | MBC (in brackets) [6] | MIC [6] | MBC (in brackets) [7] | MIC [7] | MBC (in brackets) [8] | MIC [8] | Log P [9] | MBC (in brackets) [3] | Log P ([9]; n-octanol/water, gold by FAAS) | logP ([9]; n-octanol/water, gold by FAAS)
(Benzenethiolato)(triethylphosphine) gold(I) [Compound 18] | 4.3 ± 0.2 µg/mL | 603 μM/mL | 75 μM/mL | >603 μM/mL | (>603) μM/mL | 19/75 | 1 μM/mL | 0.6 μM/mL | (151) μM/mL | 151 μM/mL | 302 (302) μM/mL | 302 (302) μM/mL | (0.6) μM/mL | 0.02 μM/mL | 2.20 |  |  | 
(Triethylphosphine) gold chloride [Compound 29] | 9.5 ± 0.1 µg/mL | 23 (23) μM/mL | 23 (23) μM/mL | 46 (46) μM/mL | 23 μM/mL | 11/23 | (0.7) μM/mL |  | 23 (23) μM/mL | 23 (23) μM/mL | 183 μM/mL | 92 μM/mL | 02 (0.2) μM/mL |  |  | 46 (46) μM/mL | 1.74 | 
CCCC[P+](CCCC)(CCCC)[Au-][S][C@@H]1OC(COC(C)=O)[C@@H](OC(C)=O)[C@H](OC(C)=O)C1OC(C)=O (stereo partly drawn) [Compound 36, (2,3,4,6-Tetra-O-acetyl-1-thio-β-D-glucopyranosato)(tri-n-butylphosphine) gold(I)] |  |  |  |  |  |  |  | 3/5 |  |  |  |  |  |  |  |  |  | > 4.32
COc1ccc([P+]([Au-][S][C@@H]2OC(COC(C)=O)[C@@H](OC(C)=O)[C@H](OC(C)=O)C2OC(C)=O)(c2ccc(OC)cc2)c2ccc(OC)cc2)cc1 (stereo partly drawn) [Compound 38, (2,3,4,6-Tetra-O-acetyl-1-thio-β-D-glucopyranosato)(tris(4-methoxyphenyl)phosphine) gold(I)] |  |  |  |  |  |  |  | 2/4 |  |  |  |  |  |  |  |  |  | > 3.03
Fc1ccc([P+]([Au-][Cl])(c2ccc(F)cc2)c2ccc(F)cc2)cc1 [Compound 33, (Tris(4-fluorphenyl)phosphine) gold chloride] |  |  |  |  |  |  |  | 2/4 |  |  |  |  |  |  |  |  |  | > 4.04
(Triphenylphosphine) gold chloride [Compound 31] | 12.0 ± 1.8 µg/mL |  | >518 μM/mL | >518 μM/mL |  |  | 4 (4) μM/mL | 4 (4) μM/mL |  | >518 μM/mL |  | >518 μM/mL | 4 μM/mL | 1/2 |  |  | >3.94 | 
CC(=O)OCC1O[C@@H]([S][Au-][P+](c2ccc(F)cc2)(c2ccc(F)cc2)c2ccc(F)cc2)C(OC(C)=O)[C@@H](OC(C)=O)[C@@H]1OC(C)=O (stereo partly drawn) [Compound 39, (2,3,4,6-Tetra-O-acetyl-1-thio-β-D-glucopyranosato)(tris(4-fluorophenyl)phosphine)gold(I)] |  |  |  |  |  |  |  | 2/5 |  |  |  |  |  |  |  |  |  | > 3.04
[β-D-galactopyranosyl-(1→4)-β-D-glucopyranosato](triethylphosphine) gold(I) [Compound 13] | 32.9 ± 4.6 µg/mL | 190 (190) μM/mL | 190 (190) μM/mL | 381 (381) μM/mL |  | 24/48 | (0.4) μM/mL | 0.09 μM/mL | 24 (24) μM/mL | 24 (24) μM/mL | 381 (381) μM/mL | 381 (381) μM/mL | 5 (0.09) μM/mL |  |  | 381 (381) μM/mL |  | 
